Assay results from patent US9802927B2, “Oxadiazine compounds and methods of use thereof” (Denali Therapeutics, Inc., priority 2015, dated 2017).

What follows are compounds tested on Aβ42 (assay: In vitro cell screening assay in H4 cells expressing human APP751: Aβ42 by sandwich ELISA). Details: Homo sapiens, compounds 0.003-10 μM, incubated overnight (16-18 h), sandwich ELISA of supernatant.
Type: cell-based
Experimental: Human neuroglioma H4 cells were transfected with a pcDNA3.1 plasmid expressing human wild type APP751 cDNA and a stable cell line was generated using G418 selection. Cells were plated at 15,000 cells/well in Costar 96-well plates and placed at 37° C. and 5% CO2. Six hours after plating, cells were washed three times with Pro293™ chemically defined medium, followed by addition of compounds (0.003-10 μM, final DMSO concentration of 0.33%). Plates were incubated overnight (16-18 h) and supernatant was removed for quantification of Aβ peptides by sandwich ELISA. Cytotoxicity was evaluated using Cell-Titer 96W AQueous One Solution Cell Proliferation Assay according to the manufacturer's protocol.
Aβ peptide levels were quantified by sandwich ELISA. 96-well plates were coated with C-terminal specific Aβ antibodies recognizing either Aβ37, Aβ38, Aβ40, Aβ42, Aβ43 or a N-terminal specific Aβ antibody to detect Aβ 1-x. Plates were then blocked overnight at 4° C. with 1% bovine serum albumin (BSA) in PBS-T. Plates were washed and 100 μl of cultured cell supernatant or synthetic Aβ peptide standards and a detection antibody (4G8-HRP) were applied to the blocked plate and incubated overnight at 4° C. The next day, wells were washed before the addition of detection substrate (TMB peroxidase). Plates were then read for absorbance at 450 nm on a Molecular Devices SpectraMax M5e Microplate Reader.
Compound-treated samples were normalized to samples treated with DMSO alone (no inhibition) and to samples treated with DAPT. EC50 values were calculated from values reported as percent of DMSO controls using nonlinear regression, based on a sigmoidal dose response (variable slope) model. GraphPAD software from Prism used for calculation.

Going from `COc1nc(C2=NOC[C@H](c3cc4ccccc4s3)N2)ccc1-n1cnc(C)c1` [Example 13, (R)-5-(Benzo[b]thiophen-2-yl)-3-(6-methoxy-5-(4-methyl-1H-imidazol-1-yl)pyridin-2-yl)-5,6-dihydro-4H-1,2,4-oxadiazine] to `COc1nc(C2=NOCC(c3cn(C)c4cccc(Cl)c34)N2)ccc1-n1cnc(C)c1` (single isomer, unassigned; (+)) [Example 229A, (+)-5-(4-chloro-1-methyl-1H-indol-3-yl)-3-(6-methoxy-5-(4-methyl-1H-imidazol-1-yl)pyridin-2-yl)-5,6-dihydro-4H-1,2,4-oxadiazine], the EC50 rises from 7.8 nM to 28.8 nM (3.7-fold). The first is the more potent here.

For `COc1nc(C2=NOCC(c3oc(C)nc3C)N2)ccc1-n1cnc(C)c1` (single isomer, unassigned; (-)) [Example 161A, (−)-5-(2,4-dimethyloxazol-5-yl)-3-(6-methoxy-5-(4-methyl-1H-imidazol-1-yl)pyridin-2-yl)-5,6-dihydro-4H-1,2,4-oxadiazine], the EC50 was > 3000 nM.

Same assay, conditions: compounds 0.003-10 μM, incubated overnight (16-18 h), sandwich ELISA of supernatant

First: COc1nc(C2=NOCC(c3cccc(S(C)(=O)=O)c3)N2)ccc1-n1cnc(C)c1 (single isomer, unassigned; (-)) [Example 214A, (−)-3-(6-methoxy-5-(4-methyl-1H-imidazol-1-yl)pyridin-2-yl)-5-(3-(methylsulfonyl)phenyl)-5,6-dihydro-4H-1,2,4-oxadiazine]
Second: COc1nc(C2=NOCC(c3ccc(F)c(Cl)c3)N2)ccc1-n1cnc(C)c1 (single isomer, unassigned; (+)) [Example 108B, (+)-5-(3-chloro-4-fluorophenyl)-3-(6-methoxy-5-(4-methyl-1H-imidazol-1-yl)pyridin-2-yl)-5,6-dihydro-4H-1,2,4-oxadiazine]
The EC50 of the first is higher: > 3000 nM for the first, 23.2 nM for the second. The second is the more potent here.

First: COc1nc(C2=NOCC(c3cn(C)c4ccccc34)N2)ccc1-n1cnc(C)c1 (single isomer, unassigned; (-)) [Example 189B, (−)-3-(6-methoxy-5-(4-methyl-1H-imidazol-1-yl)pyridin-2-yl)-5-(1-methyl-1H-indol-3-yl)-5,6-dihydro-4H-1,2,4-oxadiazine]
Second: COc1nc(C2=NOCC(c3cn(C)c4cc(Cl)ccc34)N2)ccc1-n1cnc(C)c1 (single isomer, unassigned; (+)) [Example 194A, (+)-5-(6-chloro-1-methyl-1H-indol-3-yl)-3-(6-methoxy-5-(4-methyl-1H-imidazol-1-yl)pyridin-2-yl)-5,6-dihydro-4H-1,2,4-oxadiazine]
The EC50 of the first is 33-fold higher: 252 nM for the first, 7.7 nM for the second. The second is the more potent here.

Compared with `COc1nc(C2=NOCC(c3cccc(C(F)(F)F)c3)N2C)ccc1-n1cnc(C)c1` (stereo not shown) [Example 30A, 3-(6-methoxy-5-(4-methyl-1H-imidazol-1-yl)pyridin-2-yl)-4-methyl-5-(3-(trifluoromethyl)phenyl)-5,6-dihydro-4H-1,2,4-oxadiazine], `COc1nc(C2=NOCC(c3nn(C)c4ccc(C(F)(F)F)cc34)N2)ccc1-n1cnc(C)c1` (single isomer, unassigned; (+)) [Example 241B, (+)-3-(6-methoxy-5-(4-methyl-1H-imidazol-1-yl)pyridin-2-yl)-5-(1-methyl-5-(trifluoromethyl)-1H-indazol-3-yl)-5,6-dihydro-4H-1,2,4-oxadiazine] is 11-fold lower in EC50: 55.7 nM for the first, 5.1 nM for the second.

First: COc1nc(C2=NOCC(c3cn(C)c4cc(F)c(C(F)(F)F)cc34)N2)ccc1-n1cnc(C)c1 (single isomer, unassigned; (+)) [Example 104B, (+)-5-(6-fluoro-1-methyl-5-(trifluoromethyl)-1H-indol-3-yl)-3-(6-methoxy-5-(4-methyl-1H-imidazol-1-yl)pyridin-2-yl)-5,6-dihydro-4H-1,2,4-oxadiazine]
Second: COc1nc(C2=NOCC(c3ccc(C(F)(F)F)c(F)c3)N2)ccc1-n1cnc(C)c1 (single isomer, unassigned) [Example 121A, 5-(3-fluoro-4-(trifluoromethyl)phenyl)-3-(6-methoxy-5-(4-methyl-1H-imidazol-1-yl)pyridin-2-yl)-5,6-dihydro-4H-1,2,4-oxadiazine]
The EC50 of the first is lower: 4.6 nM for the first, > 3000 nM for the second. The first is the more potent here.

Going from `COc1nc(C2=NOCC(c3ccc(F)cc3F)N2)ccc1-n1cnc(C)c1` (single isomer, unassigned) [Example 129B, 5-(2,4-difluorophenyl)-3-(6-methoxy-5-(4-methyl-1H-imidazol-1-yl)pyridin-2-yl)-5,6-dihydro-4H-1,2,4-oxadiazine] to `COc1nc(C2=NOCC(c3cc(F)c(Cl)c(F)c3)N2)ccc1-n1cnc(C)c1` (single isomer, unassigned; (-)) [Example 267A, (−)-5-(4-chloro-3,5-difluorophenyl)-3-(6-methoxy-5-(4-methyl-1H-imidazol-1-yl)pyridin-2-yl)-5,6-dihydro-4H-1,2,4-oxadiazine], the EC50 rises from 128 nM to > 3000 nM. The first is the more potent here.

Compared with `COc1nc(C2=NOCC(C3CCS(=O)(=O)CC3)N2)ccc1-n1cnc(C)c1` (single isomer, unassigned; (-)) [Example 177B, (−)-4-(3-(6-methoxy-5-(4-methyl-1H-imidazol-1-yl)pyridin-2-yl)-5,6-dihydro-4H-1,2,4-oxadiazin-5-yl) tetrahydro-2H-thiopyran 1,1-dioxide], `COc1nc(C2=NOCC(CC3CC3)N2)ccc1-n1cnc(C)c1` (single isomer, unassigned) [Example 159B, 5-(cyclopropylmethyl)-3-(6-methoxy-5-(4-methyl-1H-imidazol-1-yl)pyridin-2-yl)-5,6-dihydro-4H-1,2,4-oxadiazine] is lower in EC50: > 3000 nM for the first, 695 nM for the second. The second is the more potent here.

Going from `COc1nc(C2=NOCC(c3oc(C)nc3C)N2)ccc1-n1cnc(C)c1` (single isomer, unassigned; (+)) [Example 161B, (+)-5-(2,4-dimethyloxazol-5-yl)-3-(6-methoxy-5-(4-methyl-1H-imidazol-1-yl)pyridin-2-yl)-5,6-dihydro-4H-1,2,4-oxadiazine] to `COc1nc(C2=NOCC(c3oc4ccccc4c3C)N2)ccc1-n1cnc(C)c1` (stereo not shown) [Example 16B, 3-(6-methoxy-5-(4-methyl-1H-imidazol-1-yl)pyridin-2-yl)-5-(3-methylbenzofuran-2-yl)-5,6-dihydro-4H-1,2,4-oxadiazine], the EC50 falls from > 3000 nM to 16.7 nM.

`COc1nc(C2=NOCC(c3cn(C)c4cc(Cl)cc(OC)c34)N2)ccc1-n1cnc(C)c1` (single isomer, unassigned; (+)) [Example 254B, (+)-5-(6-chloro-4-methoxy-1-methyl-1H-indol-3-yl)-3-(6-methoxy-5-(4-methyl-1H-imidazol-1-yl)pyridin-2-yl)-5,6-dihydro-4H-1,2,4-oxadiazine] and `COc1nc(C2=NOCC(c3cn(C)c4ccc(C#N)cc34)N2)ccc1-n1cnc(C)c1` (single isomer, unassigned; (+)) [Example 245B, (+)-3-(3-(6-methoxy-5-(4-methyl-1H-imidazol-1-yl)pyridin-2-yl)-5,6-dihydro-4H-1,2,4-oxadiazin-5-yl)-1-methyl-1H-indole-5-carbonitrile] are within 1.5-fold of each other in EC50: 12.9 nM for the first, 18.5 nM for the second.

Compared with `COc1nc(C2=NOCC(c3cn(C4CC4)c4cccc(F)c34)N2)ccc1-n1cnc(C)c1` (single isomer, unassigned; (+)) [Example 222A, (+)-5-(1-cyclopropyl-4-fluoro-1H-indol-3-yl)-3-(6-methoxy-5-(4-methyl-1H-imidazol-1-yl)pyridin-2-yl)-5,6-dihydro-4H-1,2,4-oxadiazine], `COc1nc(C2=NOCC(c3ccc(F)cc3F)N2)ccc1-n1cnc(C)c1` (single isomer, unassigned) [Example 129A, 5-(2,4-difluorophenyl)-3-(6-methoxy-5-(4-methyl-1H-imidazol-1-yl)pyridin-2-yl)-5,6-dihydro-4H-1,2,4-oxadiazine] is 250-fold higher in EC50: 11.2 nM for the first, 2780 nM for the second.

First: COc1nc(C2=NOCC(c3cn(C)c4ncc(C5CC5)cc34)N2)ccc1-n1cnc(C)c1 (single isomer, unassigned; (-)) [Example 266A, (−)-5-(5-cyclopropyl-1-methyl-1H-pyrrolo[2,3-b]pyridin-3-yl)-3-(6-methoxy-5-(4-methyl-1H-imidazol-1-yl)pyridin-2-yl)-5,6-dihydro-4H-1,2,4-oxadiazine]
Second: COc1nc(C2=NOCC(c3cn(C4CC4)c4cccc(F)c34)N2)ccc1-n1cnc(C)c1 (single isomer, unassigned; (-)) [Example 222B, (−)-5-(1-cyclopropyl-4-fluoro-1H-indol-3-yl)-3-(6-methoxy-5-(4-methyl-1H-imidazol-1-yl)pyridin-2-yl)-5,6-dihydro-4H-1,2,4-oxadiazine]
The EC50 of the first is 6.6-fold higher: 450 nM for the first, 68.6 nM for the second. The second is the more potent here.

Compared with `COc1nc(C2=NOCC(CC(C)C)N2)ccc1-n1cnc(C)c1` (single isomer, unassigned; (+)) [Example 154A, (+)-5-isobutyl-3-(6-methoxy-5-(4-methyl-1H-imidazol-1-yl)pyridin-2-yl)-5,6-dihydro-4H-1,2,4-oxadiazine], `COc1nc(C2=NOCC(c3cc(Cl)cc(Cl)c3)N2)ccc1-n1cnc(C)c1` (single isomer, unassigned; (+)) [Example 118B, (+)-5-(3,5-dichlorophenyl)-3-(6-methoxy-5-(4-methyl-1H-imidazol-1-yl)pyridin-2-yl)-5,6-dihydro-4H-1,2,4-oxadiazine] is 94-fold lower in EC50: 930 nM for the first, 9.9 nM for the second. The second is the more potent here.
